Assay results from ChEMBL document CHEMBL3991601, “The target landscape of clinical kinase drugs” (Science, 2017).
Where a name gives a salt, the structure may show the parent alone. Calls of active or inactive are those of the source. Cut-off read from the data, not from the text of the source, for most assays here: actives have a measured Kd and inactives only a lower limit.

Assays:
[1] = target: Mitogen-activated protein kinase 7 (Homo sapiens, UniProt Q13164)
[2] = target: T1, Eukaryotic translation initiation factor 5B (Homo sapiens, UniProt O60841)
T1 sequence (O60841 whole entry): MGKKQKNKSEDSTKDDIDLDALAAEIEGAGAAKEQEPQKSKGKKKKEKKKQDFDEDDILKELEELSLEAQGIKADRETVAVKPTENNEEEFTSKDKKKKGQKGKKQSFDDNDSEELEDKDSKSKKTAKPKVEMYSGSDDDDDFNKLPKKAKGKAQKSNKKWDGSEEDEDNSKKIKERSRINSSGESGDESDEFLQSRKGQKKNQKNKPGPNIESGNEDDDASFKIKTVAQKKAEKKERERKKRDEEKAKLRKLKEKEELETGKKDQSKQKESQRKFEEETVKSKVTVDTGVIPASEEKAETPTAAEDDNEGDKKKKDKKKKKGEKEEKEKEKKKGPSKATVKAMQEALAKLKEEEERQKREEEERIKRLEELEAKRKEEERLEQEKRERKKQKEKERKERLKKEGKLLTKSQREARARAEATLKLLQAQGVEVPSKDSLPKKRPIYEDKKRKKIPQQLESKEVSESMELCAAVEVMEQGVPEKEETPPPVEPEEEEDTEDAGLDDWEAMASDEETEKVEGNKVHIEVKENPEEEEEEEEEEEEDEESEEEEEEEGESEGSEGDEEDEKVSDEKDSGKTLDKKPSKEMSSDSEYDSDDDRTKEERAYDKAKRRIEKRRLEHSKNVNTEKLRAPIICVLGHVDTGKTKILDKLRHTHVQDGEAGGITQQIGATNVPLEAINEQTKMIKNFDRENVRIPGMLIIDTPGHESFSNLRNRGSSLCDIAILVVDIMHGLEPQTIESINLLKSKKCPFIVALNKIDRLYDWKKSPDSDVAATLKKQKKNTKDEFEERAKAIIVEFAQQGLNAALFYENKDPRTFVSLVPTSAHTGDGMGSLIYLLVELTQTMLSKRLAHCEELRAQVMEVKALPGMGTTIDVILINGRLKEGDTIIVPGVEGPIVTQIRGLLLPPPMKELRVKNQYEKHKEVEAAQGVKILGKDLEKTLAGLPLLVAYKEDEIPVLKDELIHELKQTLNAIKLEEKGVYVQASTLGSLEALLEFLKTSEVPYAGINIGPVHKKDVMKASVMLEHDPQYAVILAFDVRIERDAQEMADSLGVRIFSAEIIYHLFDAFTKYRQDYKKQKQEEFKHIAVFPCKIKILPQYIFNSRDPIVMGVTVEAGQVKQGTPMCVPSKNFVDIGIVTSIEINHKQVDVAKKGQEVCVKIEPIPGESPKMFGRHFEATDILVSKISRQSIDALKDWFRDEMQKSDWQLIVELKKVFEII

[3] = target: T2, Phenylalanine--tRNA ligase beta subunit (Homo sapiens, UniProt Q9NSD9)
T2 sequence (Q9NSD9 whole entry): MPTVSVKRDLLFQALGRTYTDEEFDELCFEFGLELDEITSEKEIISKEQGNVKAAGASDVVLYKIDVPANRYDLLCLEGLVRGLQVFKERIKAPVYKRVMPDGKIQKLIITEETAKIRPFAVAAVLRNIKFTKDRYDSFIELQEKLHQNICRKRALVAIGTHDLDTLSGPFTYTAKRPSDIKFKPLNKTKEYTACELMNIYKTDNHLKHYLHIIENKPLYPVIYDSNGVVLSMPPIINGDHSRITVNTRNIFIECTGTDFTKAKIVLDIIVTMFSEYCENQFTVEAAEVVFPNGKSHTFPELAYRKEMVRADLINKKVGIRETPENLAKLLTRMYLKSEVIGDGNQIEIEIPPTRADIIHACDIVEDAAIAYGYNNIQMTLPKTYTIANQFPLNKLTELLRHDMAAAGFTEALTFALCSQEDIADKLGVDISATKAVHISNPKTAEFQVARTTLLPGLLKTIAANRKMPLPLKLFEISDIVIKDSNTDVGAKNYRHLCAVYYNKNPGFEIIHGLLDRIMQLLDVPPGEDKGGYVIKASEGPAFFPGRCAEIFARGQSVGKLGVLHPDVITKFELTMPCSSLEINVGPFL

[4] = target: T3, Inhibitor of nuclear factor kappa-B kinase subunit epsilon (Homo sapiens, UniProt Q14164)
T3 sequence (Q14164 whole entry): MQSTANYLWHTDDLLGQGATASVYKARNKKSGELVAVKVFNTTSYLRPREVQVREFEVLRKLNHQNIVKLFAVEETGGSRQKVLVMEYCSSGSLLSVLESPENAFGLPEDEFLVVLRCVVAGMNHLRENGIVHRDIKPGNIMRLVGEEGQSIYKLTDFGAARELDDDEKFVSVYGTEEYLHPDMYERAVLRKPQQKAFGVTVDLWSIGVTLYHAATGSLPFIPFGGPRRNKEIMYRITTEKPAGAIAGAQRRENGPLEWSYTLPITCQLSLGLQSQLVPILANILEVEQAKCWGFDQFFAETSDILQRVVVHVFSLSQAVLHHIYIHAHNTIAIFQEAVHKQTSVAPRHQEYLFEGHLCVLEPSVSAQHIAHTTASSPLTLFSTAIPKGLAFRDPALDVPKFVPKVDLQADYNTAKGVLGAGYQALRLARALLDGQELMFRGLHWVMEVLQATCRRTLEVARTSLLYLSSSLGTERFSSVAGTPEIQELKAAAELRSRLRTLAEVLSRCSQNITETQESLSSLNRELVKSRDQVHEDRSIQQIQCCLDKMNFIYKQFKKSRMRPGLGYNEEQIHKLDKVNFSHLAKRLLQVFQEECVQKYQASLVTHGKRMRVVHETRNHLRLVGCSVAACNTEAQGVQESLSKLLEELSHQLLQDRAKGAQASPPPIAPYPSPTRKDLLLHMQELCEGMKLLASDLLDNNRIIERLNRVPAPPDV

[5] = target: Cyclin-dependent kinase 13 (Homo sapiens, UniProt Q14004)
Activated CDC42 kinase 1 = Activated CDC42 kinase 1 (Homo sapiens, UniProt Q07912)
[6] = target: TRAF2 and NCK-interacting protein kinase (Homo sapiens, UniProt Q9UKE5)
[7] = target: Rho-associated protein kinase 1 (Homo sapiens, UniProt Q13464)
[8] = target: Tyrosine-protein kinase ABL1 (Homo sapiens, UniProt P00519)
[9] = target: Mitogen-activated protein kinase 8 (Homo sapiens, UniProt P45983)
Note: in the data inactive means no Kd found up to 30 µM.

Chain of Mitogen-activated protein kinase 7 (Q13164 whole entry): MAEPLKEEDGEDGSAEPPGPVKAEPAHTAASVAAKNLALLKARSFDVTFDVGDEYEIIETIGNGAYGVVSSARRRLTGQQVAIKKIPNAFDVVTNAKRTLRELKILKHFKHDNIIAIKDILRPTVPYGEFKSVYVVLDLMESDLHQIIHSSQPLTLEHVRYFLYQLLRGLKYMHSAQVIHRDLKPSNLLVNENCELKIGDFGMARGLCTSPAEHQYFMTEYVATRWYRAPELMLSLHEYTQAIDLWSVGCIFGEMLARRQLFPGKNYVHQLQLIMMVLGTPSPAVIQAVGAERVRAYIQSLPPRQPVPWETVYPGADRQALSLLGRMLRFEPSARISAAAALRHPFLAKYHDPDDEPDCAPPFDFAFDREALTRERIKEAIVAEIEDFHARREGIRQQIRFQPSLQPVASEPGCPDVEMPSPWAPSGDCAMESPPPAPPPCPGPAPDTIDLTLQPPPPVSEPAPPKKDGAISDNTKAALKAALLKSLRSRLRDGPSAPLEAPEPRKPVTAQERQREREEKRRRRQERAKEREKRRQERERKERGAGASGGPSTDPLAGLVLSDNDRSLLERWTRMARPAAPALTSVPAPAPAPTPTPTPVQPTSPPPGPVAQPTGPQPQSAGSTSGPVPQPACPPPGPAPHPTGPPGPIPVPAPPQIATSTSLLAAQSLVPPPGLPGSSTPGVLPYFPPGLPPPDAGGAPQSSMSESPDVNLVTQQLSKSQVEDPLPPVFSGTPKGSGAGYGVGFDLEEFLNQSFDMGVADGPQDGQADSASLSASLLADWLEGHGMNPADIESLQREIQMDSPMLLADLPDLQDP
Chain of Activated CDC42 kinase 1 (Q07912 whole entry): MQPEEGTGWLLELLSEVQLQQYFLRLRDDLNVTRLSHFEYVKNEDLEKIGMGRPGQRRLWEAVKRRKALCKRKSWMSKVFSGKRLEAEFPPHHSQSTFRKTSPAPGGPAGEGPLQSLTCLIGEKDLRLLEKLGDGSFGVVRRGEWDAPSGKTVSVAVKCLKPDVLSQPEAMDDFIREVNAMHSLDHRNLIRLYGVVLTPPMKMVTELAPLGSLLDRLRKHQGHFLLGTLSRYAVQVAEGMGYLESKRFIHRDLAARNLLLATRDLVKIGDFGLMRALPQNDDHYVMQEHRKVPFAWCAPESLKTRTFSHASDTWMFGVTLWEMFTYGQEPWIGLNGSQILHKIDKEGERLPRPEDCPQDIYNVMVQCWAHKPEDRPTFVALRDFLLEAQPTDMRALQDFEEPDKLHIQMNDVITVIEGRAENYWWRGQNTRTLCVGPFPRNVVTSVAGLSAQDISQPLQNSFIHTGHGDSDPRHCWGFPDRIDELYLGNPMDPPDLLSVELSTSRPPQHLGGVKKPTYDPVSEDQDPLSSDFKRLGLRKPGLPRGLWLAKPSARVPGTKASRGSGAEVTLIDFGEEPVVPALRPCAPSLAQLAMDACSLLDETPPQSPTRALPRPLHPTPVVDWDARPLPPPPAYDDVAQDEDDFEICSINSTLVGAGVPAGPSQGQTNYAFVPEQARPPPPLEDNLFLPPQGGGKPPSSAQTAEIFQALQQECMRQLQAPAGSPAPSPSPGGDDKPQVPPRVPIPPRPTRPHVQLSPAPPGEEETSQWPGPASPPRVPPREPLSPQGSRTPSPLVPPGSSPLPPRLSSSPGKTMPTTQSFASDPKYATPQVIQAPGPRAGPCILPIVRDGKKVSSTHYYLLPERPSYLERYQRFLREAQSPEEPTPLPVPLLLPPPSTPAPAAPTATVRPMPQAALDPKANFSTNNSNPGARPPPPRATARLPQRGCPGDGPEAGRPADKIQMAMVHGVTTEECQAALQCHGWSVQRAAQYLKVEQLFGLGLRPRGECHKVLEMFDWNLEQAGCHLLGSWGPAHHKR
Chain of Rho-associated protein kinase 1 (Q13464 whole entry): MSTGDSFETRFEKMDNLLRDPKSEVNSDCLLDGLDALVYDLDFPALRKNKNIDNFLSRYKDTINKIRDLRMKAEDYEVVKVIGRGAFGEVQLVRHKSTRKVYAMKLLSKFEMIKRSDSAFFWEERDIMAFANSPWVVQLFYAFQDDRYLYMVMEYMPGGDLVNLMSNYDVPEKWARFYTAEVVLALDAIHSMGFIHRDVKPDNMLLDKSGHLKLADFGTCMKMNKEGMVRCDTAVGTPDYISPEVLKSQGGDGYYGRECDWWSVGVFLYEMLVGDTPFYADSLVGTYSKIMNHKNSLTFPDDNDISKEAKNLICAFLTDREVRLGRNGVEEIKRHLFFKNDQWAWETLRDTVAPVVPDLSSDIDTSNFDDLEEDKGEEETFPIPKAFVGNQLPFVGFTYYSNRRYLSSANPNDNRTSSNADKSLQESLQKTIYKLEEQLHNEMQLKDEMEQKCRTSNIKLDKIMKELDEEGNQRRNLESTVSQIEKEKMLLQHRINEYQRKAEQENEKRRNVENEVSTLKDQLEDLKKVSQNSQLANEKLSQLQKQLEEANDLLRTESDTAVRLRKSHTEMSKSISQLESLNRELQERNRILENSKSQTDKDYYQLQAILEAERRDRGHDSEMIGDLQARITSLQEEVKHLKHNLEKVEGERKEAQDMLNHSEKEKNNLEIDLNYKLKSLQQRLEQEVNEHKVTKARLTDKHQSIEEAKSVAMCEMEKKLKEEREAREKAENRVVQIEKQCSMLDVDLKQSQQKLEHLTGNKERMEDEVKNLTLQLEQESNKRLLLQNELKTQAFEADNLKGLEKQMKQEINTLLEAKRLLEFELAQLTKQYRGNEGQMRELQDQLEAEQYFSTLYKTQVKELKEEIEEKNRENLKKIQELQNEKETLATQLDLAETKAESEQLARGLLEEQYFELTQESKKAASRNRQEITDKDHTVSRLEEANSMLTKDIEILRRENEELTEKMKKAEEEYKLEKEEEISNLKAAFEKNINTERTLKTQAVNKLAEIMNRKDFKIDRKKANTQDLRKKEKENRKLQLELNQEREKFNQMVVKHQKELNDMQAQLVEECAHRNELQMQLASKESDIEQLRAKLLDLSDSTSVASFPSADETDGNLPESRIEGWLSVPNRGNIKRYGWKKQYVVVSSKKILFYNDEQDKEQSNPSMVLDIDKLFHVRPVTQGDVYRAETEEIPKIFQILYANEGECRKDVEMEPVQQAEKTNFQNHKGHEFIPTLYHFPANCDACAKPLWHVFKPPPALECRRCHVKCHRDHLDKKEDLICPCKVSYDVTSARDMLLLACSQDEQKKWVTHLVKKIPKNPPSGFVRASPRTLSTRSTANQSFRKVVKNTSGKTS
Chain of Tyrosine-protein kinase ABL1 (P00519 whole entry): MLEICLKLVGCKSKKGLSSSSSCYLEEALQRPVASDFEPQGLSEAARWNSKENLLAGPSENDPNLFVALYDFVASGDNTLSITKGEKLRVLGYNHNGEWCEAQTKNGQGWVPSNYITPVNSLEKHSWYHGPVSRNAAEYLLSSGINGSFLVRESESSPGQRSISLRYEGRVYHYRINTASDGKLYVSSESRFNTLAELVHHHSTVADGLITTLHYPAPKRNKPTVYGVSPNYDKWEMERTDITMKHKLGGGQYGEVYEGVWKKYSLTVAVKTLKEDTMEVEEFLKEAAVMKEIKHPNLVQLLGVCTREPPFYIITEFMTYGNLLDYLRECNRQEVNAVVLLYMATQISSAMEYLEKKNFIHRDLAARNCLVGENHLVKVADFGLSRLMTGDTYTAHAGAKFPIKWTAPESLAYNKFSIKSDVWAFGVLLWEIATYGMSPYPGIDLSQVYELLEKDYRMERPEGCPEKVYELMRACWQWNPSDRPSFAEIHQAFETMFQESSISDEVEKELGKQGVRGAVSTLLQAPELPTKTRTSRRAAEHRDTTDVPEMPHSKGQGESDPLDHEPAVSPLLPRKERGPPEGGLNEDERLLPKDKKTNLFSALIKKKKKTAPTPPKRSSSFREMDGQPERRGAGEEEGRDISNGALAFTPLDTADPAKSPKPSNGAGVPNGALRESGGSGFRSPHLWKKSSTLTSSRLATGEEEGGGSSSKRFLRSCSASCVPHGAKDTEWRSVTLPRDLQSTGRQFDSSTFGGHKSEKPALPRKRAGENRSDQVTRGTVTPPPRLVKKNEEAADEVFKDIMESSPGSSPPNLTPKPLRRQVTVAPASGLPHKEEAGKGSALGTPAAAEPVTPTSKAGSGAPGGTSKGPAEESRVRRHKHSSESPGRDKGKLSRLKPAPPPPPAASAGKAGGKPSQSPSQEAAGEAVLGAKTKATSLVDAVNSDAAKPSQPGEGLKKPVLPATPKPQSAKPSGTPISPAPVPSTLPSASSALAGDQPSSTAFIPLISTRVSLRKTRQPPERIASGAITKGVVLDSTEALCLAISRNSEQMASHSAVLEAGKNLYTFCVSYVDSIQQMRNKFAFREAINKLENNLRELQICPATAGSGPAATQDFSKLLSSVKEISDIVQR
Chain of Mitogen-activated protein kinase 8 (P45983 whole entry): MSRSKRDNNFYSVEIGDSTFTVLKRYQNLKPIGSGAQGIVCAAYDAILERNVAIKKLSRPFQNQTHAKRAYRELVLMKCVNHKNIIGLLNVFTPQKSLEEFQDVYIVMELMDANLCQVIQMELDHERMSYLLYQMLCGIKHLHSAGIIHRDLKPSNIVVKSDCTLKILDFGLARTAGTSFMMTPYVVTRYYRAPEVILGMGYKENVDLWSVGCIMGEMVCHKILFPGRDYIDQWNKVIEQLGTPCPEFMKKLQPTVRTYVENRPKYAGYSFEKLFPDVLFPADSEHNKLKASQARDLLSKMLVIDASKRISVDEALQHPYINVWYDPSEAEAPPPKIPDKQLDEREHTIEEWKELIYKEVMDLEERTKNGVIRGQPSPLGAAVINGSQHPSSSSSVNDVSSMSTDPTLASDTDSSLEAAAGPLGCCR

Kd [1]	Kd [2]	Kd [3]	Kd [4]	Kd [5]	Kd (Activated CDC42 kinase 1)	Kd [6]	Kd [7]	Kd [8]	Kd [9]	Compound
> 30 µM (inactive)	> 30 µM (inactive)	> 30 µM (inactive)	> 30 µM (inactive)	2.51 µM	> 30 µM (inactive)	> 30 µM (inactive)	> 30 µM (inactive)	1.9 µM (active)	> 30 µM (inactive)	Cc1csc(-c2nnc(Nc3ccc(Oc4ncccc4-c4ccnc(N)n4)cc3)c3ccccc23)c1 [AMG-900]
> 30 µM (inactive)	> 30 µM (inactive)	> 30 µM (inactive)	> 30 µM (inactive)	> 30 µM (inactive)	> 30 µM (inactive)	> 30 µM (inactive)	> 30 µM (inactive)	> 30 µM (inactive)	> 30 µM (inactive)	Cc1cc(C(=O)NOCCO)c(Nc2ccc(I)cc2F)n(C)c1=O [AZD-8330]
> 30 µM (inactive)	> 30 µM (inactive)	> 30 µM (inactive)	> 30 µM (inactive)	> 30 µM (inactive)	> 30 µM (inactive)	> 30 µM (inactive)	> 30 µM (inactive)	> 30 µM (inactive)	> 30 µM (inactive)	CCn1c(C(=O)N(C2CC2)C2CC2)cc2c3c(ncn3C)c(Nc3cc(C)n(C)n3)nc21 [BMS-911543]
> 30 µM (inactive)	> 30 µM (inactive)	> 30 µM (inactive)	> 30 µM (inactive)	> 30 µM (inactive)	> 30 µM (inactive)	> 30 µM (inactive)	> 30 µM (inactive)	0.05 µM (active)	1.47 µM (active)	COc1cc2ncnc(Oc3cccc(NC(=O)Nc4cc(C(C)(C)C(F)(F)F)on4)c3)c2cc1OC [CEP-32496]
> 30 µM (inactive)	> 30 µM (inactive)	> 30 µM (inactive)	> 30 µM (inactive)	> 30 µM (inactive)	> 30 µM (inactive)	> 30 µM (inactive)	> 30 µM (inactive)	> 30 µM (inactive)	> 30 µM (inactive)	COCC(=O)NC/C=C/c1ccc2ncnc(Nc3ccc(Oc4ccc(C)nc4)c(C)c3)c2c1 [CP-724714]

The remaining lines, values behind:

Compound	Kd [1]	Kd [2]	Kd [3]	Kd [4]	Kd [5]	Kd (Activated CDC42 kinase 1)	Kd [6]	Kd [7]	Kd [8]	Kd [9]
C=CC(=O)N1CCC[C@H](n2c(=O)n(-c3ccc(Oc4ccccc4)cc3)c3c(N)ncnc32)C1	> 30 µM (inactive)	> 30 µM (inactive)	> 30 µM (inactive)	> 30 µM (inactive)	> 30 µM (inactive)	> 30 µM (inactive)	> 30 µM (inactive)	> 30 µM (inactive)	> 30 µM (inactive)	> 30 µM (inactive)
Cc1nc2cc(-c3nn(C(C)C)c4ncnc(N)c34)ccc2o1	> 30 µM (inactive)	> 30 µM (inactive)	> 30 µM (inactive)	> 30 µM (inactive)	> 30 µM (inactive)	> 30 µM (inactive)	> 30 µM (inactive)	> 30 µM (inactive)	> 30 µM (inactive)	> 30 µM (inactive)
Cc1nc(NC(=O)N2CCC[C@H]2C(N)=O)sc1-c1ccnc(C(C)(C)C(F)(F)F)c1 [ALPELISIB]	> 30 µM (inactive)	> 30 µM (inactive)	> 30 µM (inactive)	> 30 µM (inactive)	> 30 µM (inactive)	> 30 µM (inactive)	> 30 µM (inactive)	> 30 µM (inactive)	> 30 µM (inactive)	> 30 µM (inactive)
C=CC(=O)Nc1cc2c(Nc3ccc(F)c(Cl)c3)ncnc2cc1C#CC(C)(C)N1CCN(C)CC1 [AV-412 FREE BASE]	> 30 µM (inactive)	> 30 µM (inactive)	> 30 µM (inactive)	> 30 µM (inactive)	> 30 µM (inactive)	> 30 µM (inactive)	> 30 µM (inactive)	> 30 µM (inactive)	> 30 µM (inactive)	> 30 µM (inactive)
Cn1cnc2c(F)c(Nc3ccc(Br)cc3F)c(C(=O)NOCCO)cc21 [BINIMETINIB]	> 30 µM (inactive)	> 30 µM (inactive)	> 30 µM (inactive)	> 30 µM (inactive)	> 30 µM (inactive)	> 30 µM (inactive)	> 30 µM (inactive)	> 30 µM (inactive)	> 30 µM (inactive)	> 30 µM (inactive)
COc1c(OCCCN2CCOCC2)ccc2c1N=C(NC(=O)c1cnc(N)nc1)N1CCN=C21 [COPANLISIB]	> 30 µM (inactive)	> 30 µM (inactive)	> 30 µM (inactive)	> 30 µM (inactive)	> 30 µM (inactive)	> 30 µM (inactive)	> 30 µM (inactive)	> 30 µM (inactive)	> 30 µM (inactive)	> 30 µM (inactive)
CCS(=O)(=O)N1CCN(c2ccc(Nc3ncc(C(N)=O)c(NC4CC4)n3)cc2)CC1 [Cerdulatinib Hydrochloride]	> 30 µM (inactive)	> 30 µM (inactive)	> 30 µM (inactive)	1.29 µM (active)	> 30 µM (inactive)	> 30 µM (inactive)	> 30 µM (inactive)	> 30 µM (inactive)	> 30 µM (inactive)	0.356 µM (active)
Cc1nc2cc(-n3ncc(C(=O)c4cc5ccccc5[nH]4)c3N)ccc2[nH]1 [FGFR INHIBITOR DEBIO 1347]	> 30 µM (inactive)	> 30 µM (inactive)	> 30 µM (inactive)	> 30 µM (inactive)	> 30 µM (inactive)	> 30 µM (inactive)	> 30 µM (inactive)	> 30 µM (inactive)	> 30 µM (inactive)	> 30 µM (inactive)
O=C(Nc1nc2cccc(-c3ccc(CN4CCS(=O)(=O)CC4)cc3)n2n1)C1CC1 [FILGOTINIB]	> 30 µM (inactive)	> 30 µM (inactive)	> 30 µM (inactive)	> 30 µM (inactive)	> 30 µM (inactive)	> 30 µM (inactive)	> 30 µM (inactive)	> 30 µM (inactive)	> 30 µM (inactive)	> 30 µM (inactive)
